In patent US20150080329A1, “PHARMACEUTICAL COMPOSITIONS COMPRISING DHA, EPA, AND/OR GLA AND AN ANTIBIOTIC AGENT AND METHODS OF USE THEREOF” (priority 2013, published 2015):
Converted amounts (≈) assume the structure as drawn. Read-outs that look alike come from different tables or passages of the source.

Assays:
Type in all cases: cell-based
S. aureus ATCC43300 = assay: MIC and MBC determination by broth micro-dilution against S. aureus
S. aureus = assay: Checkerboard assay of interactions between LC-PUFAs and topical antimicrobial agents; settings: n = 2, mean ± one standard deviation
Experimental: Checkerboard assays were performed according to the standard protocol published by the American Society for Microbiology to investigate the existence of synergistic antimicrobial interactions between the three LC-PUFAs and two anti-acne agents (BPO and SA) against P. acnes. Further checkerboards were performed against S. aureus for BPO, SA and four antibiotics used to treat topical staphylococcal infections (FUS, MUP, NEO and POL) with these agents being assessed separately against each of the three LC-PUFAs. Doubling dilutions of each compound were prepared in TSA or SBB and dispensed to 96-well plates in the standard checkerboard pattern. […] Control wells were dispensed with medium supplemented with the greatest concentration of solvent used in any well, while negative control wells contained just medium. Inoculums were prepared to 1×10^7 CFU/mL as above. Each well (except for negative controls) was inoculated with 5 μL of bacterial suspension. Plates were incubated as for MIC determinations above and then the presence of bacterial growth was determined for each well according to the clarity of the medium and/or the presence of suspended colonies. The FIC for each well was determined for each interaction and the lowest FICs from duplicate checkerboard assays were used to calculate a mean value that permitted interpretation of the nature of interaction between each combination of compounds Using the pre-determined MIC values, checkerboard assays were performed to detect the interactions between the LC-PUFAs and the clinical antimicrobial drugs against the growth of S. aureus. The lowest fractional inhibitory concentration (FIC) on duplicate checkerboards was used to calculate a mean FIC for each interaction, and a mean FIC ≦0.5 was defined as synergy while a mean FIC ≧4 was defined as antagonism. Against S. aureus, none of the combinations gave a mean FIC ≧4, indicating no antagonism of efficacy between the LC-PUFAs and the clinical antimicrobial agents (Table 4). […] (Table 4)

P. acnes NCTC737 = assay: MIC and MBC determination by broth micro-dilution against P. acnes
[1] = tested on: ten diverse isolates of S. aureus; assay: MIC50 and MBC50 against ten diverse isolates of S. aureus; settings: Staphylococcus aureus; for MIC50: concentration required to inhibit 50% of ten S. aureus isolates; for MBC: concentration required to kill 50% of ten S. aureus isolates
[2] = Staphylococcus aureus, S. aureus ATCC43300, Mueller-Hinton broth, 18-20 h, LC-PUFAs (Table 1), read-out: MIC
[3] = Staphylococcus aureus, S. aureus ATCC43300, kills ≧99.9% of initial inoculum, LC-PUFAs (Table 1), read-out: MBC
[4] = Cutibacterium acnes, P. acnes NCTC737, kills ≧99.9% of initial inoculum, LC-PUFAs (Table 1), read-out: MBC
[5] = Cutibacterium acnes, P. acnes NCTC737, supplemented brucella broth, 48 h, LC-PUFAs (Table 1), read-out: MIC
[6] = S. aureus, clinical antimicrobial agents (Table 3)
[7] = P. acnes, clinical antimicrobial agents (Table 3)

| Molecule | MIC50 [1] [µg/mL] | MIC (S. aureus ATCC43300; [2]) [mg/L] | MIC (P. acnes NCTC737; [5]) [µg/mL] | MIC (S. aureus ATCC43300; [6]) [mg/L] | ΣFIC (S. aureus; in combination with DHA) | ΣFIC (S. aureus; in combination with EPA) | ΣFIC (S. aureus; in combination with GLA) | MBC [1] [µg/mL] | MBC (S. aureus ATCC43300; [3]) [mg/L] | MBC (P. acnes NCTC737; [4]) [µg/mL] | MBC (S. aureus ATCC43300; [6]) [mg/L] | other results |
| --- | --- | --- | --- | --- | --- | --- | --- | --- | --- | --- | --- | --- |
| O=C(OOC(=O)c1ccccc1)c1ccccc1 [BPO, benzoyl peroxide] | – | – | – | – | 2.00 ± 0.00 | 1.00 ± 0.00 | 0.56 ± 0.09 | – | – | – | – | MBC (S. aureus ATCC43300; Staphylococcus aureus, ATCC43300, S. aureus, clinical antimicrobial agents (Table 3), read-out: MBC): 512 mg/L (≈ 2110 µM); MIC (S. aureus ATCC43300; Staphylococcus aureus, ATCC43300, S. aureus, clinical antimicrobial agents (Table 3), read-out: MIC): 512 mg/L (≈ 2110 µM); MBC (P. acnes NCTC737; Cutibacterium acnes, NCTC737, P. acnes, clinical antimicrobial agents (Table 3), read-out: MBC): > 4100 µg/mL; MIC (P. acnes NCTC737; Cutibacterium acnes, NCTC737, P. acnes, clinical antimicrobial agents (Table 3), read-out: MIC): 64 µg/mL (≈ 264 µM) |
| CC/C=C\C/C=C\C/C=C\C/C=C\C/C=C\C/C=C\CCC(=O)O [DHA, (4Z,7Z,10Z,13Z,16Z,19Z)-docosa-4,7,10,13,16,19-hexaenoic acid] | 128 (≈ 390 µM) | 128 (≈ 390 µM) | 32 (≈ 97.4 µM) | – | – | – | – | 256 (≈ 779 µM) | 128 (≈ 390 µM) | > 4100 | – | – |
| CC(=O)O[C@H]1C[C@@]2(C)[C@@H](C[C@@H](O)[C@H]3[C@@]4(C)CC[C@@H](O)[C@@H](C)[C@@H]4CC[C@@]32C)/C1=C(\CCC=C(C)C)C(=O)O [FUS] | – | – | – | 0.25 (≈ 0.484 µM) | 2.00 ± 0.00 | 1.13 ± 0.18 | 1.50 ± 0.71 | – | – | – | 8 (≈ 15.5 µM) | – |
| O=C(O)c1ccccc1O [SA] | – | – | – | 1024 (≈ 7410 µM) | 1.25 ± 0.35 | 0.88 ± 0.18 | 0.88 ± 0.18 | – | – | – | 2048 (≈ 14800 µM) | MBC (P. acnes NCTC737; [7]): >4096 µg/mL; MIC (P. acnes NCTC737; [7]): 64 µg/mL (≈ 463 µM) |
| polymyxin B | – | – | – | 16 | 2.00 ± 0.00 | 2.00 ± 0.00 | 1.06 ± 0.62 | – | – | – | 128 | – |

More lines, main results first:

| MIC50 [1] [µg/mL] | MIC (S. aureus ATCC43300; [2]) [mg/L] | MIC (P. acnes NCTC737; [5]) [µg/mL] | MIC (S. aureus ATCC43300; [6]) [mg/L] | Molecule | ΣFIC (S. aureus; in combination with DHA) | ΣFIC (S. aureus; in combination with EPA) | ΣFIC (S. aureus; in combination with GLA) | MBC [1] [µg/mL] | MBC (S. aureus ATCC43300; [3]) [mg/L] | MBC (P. acnes NCTC737; [4]) [µg/mL] | MBC (S. aureus ATCC43300; [6]) [mg/L] | other results |
| --- | --- | --- | --- | --- | --- | --- | --- | --- | --- | --- | --- | --- |
| 256 (≈ 846 µM) | 128 (≈ 423 µM) | 128 (≈ 423 µM) | – | CC/C=C\C/C=C\C/C=C\C/C=C\C/C=C\CCCC(=O)O [EPA, all-cis-5,8,11,14,17-eicosapentaenoic acid] | – | – | – | 256 (≈ 846 µM) | 256 (≈ 846 µM) | > 4100 | – | – |
| 512 (≈ 1840 µM) | 512 (≈ 1840 µM) | 64 (≈ 230 µM) | – | CCCCC/C=C\C/C=C\C/C=C\CCCCC(=O)O [GLA, all-cis-6,9,12-octadecatrienoic acid] | – | – | – | 512 (≈ 1840 µM) | 512 (≈ 1840 µM) | > 4100 | – | – |
| – | – | – | 0.25 (≈ 0.499 µM) | C/C(=C\C(=O)OCCCCCCCCC(=O)O)C[C@@H]1OC[C@H](C[C@@H]2O[C@H]2[C@@H](C)[C@H](C)O)[C@@H](O)[C@H]1O [MUP] | 1.50 ± 0.00 | 2.00 ± 0.00 | 2.25 ± 0.35 | – | – | – | 16 (≈ 32 µM) | – |
| – | – | – | 32 (≈ 52.1 µM) | NC[C@@H]1O[C@H](O[C@H]2[C@@H](O)[C@H](O[C@@H]3[C@@H](O)[C@H](N)C[C@H](N)[C@H]3O[C@H]3O[C@H](CN)[C@@H](O)[C@H](O)[C@H]3N)O[C@@H]2CO)[C@H](N)[C@@H](O)[C@@H]1O [NEO, neomycin] | 0.56 ± 0.09 | 0.38 ± 0.00 | 0.19 ± 0.00 | – | – | – | 128 (≈ 208 µM) | – |
